In brackets after ≈: the same amount, converted by molar mass.
Key:
Leishmania mexicana = test: Antileishmanial activity against Leishmania mexicana intracellular amastigotes infected in J774 macrophages assessed as reduction in parasite viability after 72 hrs; format: functional, organism-based; conditions: J774, 72 h
Candida albicans = test: Antifungal activity against Candida albicans assessed as reduction in viability after 24 hrs by broth microdilution assay; format: functional
Leishmania amazonensis [1] = test: Antileishmanial activity against Leishmania amazonensis promastigotes assessed as reduction in parasite viability after 72 hrs by CCK-8 assay; format: functional, organism-based
Leishmania donovani = test: Antileishmanial activity against Leishmania donovani LCR-133 promastigotes assessed as reduction in RNA synthesis at 95 uM preincubated for 30 mins followed by addition of 5-[3H]-uridine and measured up to 145 mins by liquid scintillation counting method relative o control; format: functional; design: scale not given: the % may be the effect or the level left
Leishmania amazonensis [2] = test: Antileishmanial activity against Leishmania amazonensis MHOM/BR/75/Josefa promastigotes assessed as reduction in parasite viability after 72 hrs by Neubauer chamber counting method; format: functional, organism-based
Leishmania amazonensis [3] = test: Antileishmanial activity against Leishmania amazonensis MHOM/BR/75/Josefa intracellular amastigotes infected in CF-1 macrophages assessed as reduction in parasite viability after 72 hrs by optical microscopic method; format: functional, organism-based
Leishmania amazonensis [4] = test: Antileishmanial activity against Leishmania amazonensis MHOM/BR/77/LTB 0016 promastigotes assessed as reduction in parasite viability after 72 hrs by MTT assay; format: functional, organism-based; conditions: MHOM/BR/77/LTB 0016, 72 h
Leishmania amazonensis [5] = test: Antileishmanial activity against Leishmania amazonensis MHOM/BR/77/LTB 0016 intracellular amastigotes infected in BALB/c Peritoneal macrophages assessed as reduction in parasite viability after 72 hrs by light microscopic method; format: functional, organism-based; conditions: MHOM/BR/77/LTB 0016, 72 h

Structure (SMILES): CC(C)=CCC/C(C)=C/CNCCNC1C2CC3CC(C2)CC1C3 (centres undefined) [SQ109]
- IC50 (Leishmania mexicana): 11 nM

Structure (SMILES): C[C@@H]1[C@H](O)[C@@H](C)/C=C/C=C/C=C/C=C/C=C/C=C/C=C/[C@H](O[C@@H]2O[C@H](C)[C@@H](O)[C@H](N)[C@@H]2O)C[C@@H]2O[C@](O)(C[C@@H](O)C[C@@H](O)[C@H](O)CC[C@@H](O)C[C@@H](O)CC(=O)O[C@H]1C)C[C@H](O)[C@H]2C(=O)O [AMPHOTERICIN B]
- MIC (Candida albicans): 0.25 µM (≈ 0.231 µg/mL)

Structure (SMILES): C[C@@H]1C[C@@H](C)/C=C/C=C/C=C/C=C/C=C/C=C/C=C/[C@H](O[C@@H]2O[C@H](C)[C@@H](O)[C@H](N)[C@@H]2O)C[C@@H]2O[C@](O)(C[C@@H](O)C[C@@H](O)[C@H](O)CC[C@@H](O)C[C@@H](O)CC(=O)O[C@H]1C)C[C@H](O)[C@H]2C(=O)O
- MIC (Candida albicans): 4 µM (≈ 3.63 µg/mL)

Structure (SMILES): OC(Cn1cncn1)(Cn1cncn1)c1ccc(F)cc1F [FLUCONAZOLE]
- IC50 (Leishmania amazonensis [1]): 10100 nM

Structure (SMILES): CCCCCCCCCCCCCCCCOP(=O)([O-])OCC[N+](C)(C)C [MILTEFOSINE]
- Activity (Leishmania donovani): 96.32%

Structure (SMILES): CCC(C)n1ncn(-c2ccc(N3CCN(c4ccc(OCC5COC(Cn6cncn6)(c6ccc(Cl)cc6Cl)O5)cc4)CC3)cc2)c1=O (centres undefined) [ITRACONAZOLE]
- IC50 (Leishmania amazonensis [2]): 440 nM
- IC50 (Leishmania amazonensis [3]): 80 nM

Structure (SMILES): CC(=O)N1CCN(c2ccc(OCC3COC(Cn4ccnc4)(c4ccc(Cl)cc4Cl)O3)cc2)CC1 (centres undefined) [KETOCONAZOLE]
- IC50 (Leishmania amazonensis [4]): 2700 nM
- IC50 (Leishmania amazonensis [5]): 6800 nM
